# Assay results from patent US20030203944A1, “Novel thiocarbamic acid derivatives and the pharmaceutical compositions containing the same” (priority 2000, published 2003).
# What was measured:
# [1] = target: T1, cation channel connected to vanilloid receptor (Rattus norvegicus, UniProt O35433); assay: Channel activity assay (patch clamp test); assay type: cell-based; parameters: key: NR: no response; +: antagonistic potency equal to capsazepine; ++: antagonistic potency 10 times higher than capsazepine; conditions: potency relative to capsazepine
# T1 construct: endogenous in cells
# Description: (2) Channel Activity Assay
# Antagonistic activities of test compounds were assayed based on electrical change of cation channel connected to vanilloid receptor and experiments were conducted according to reference method (Oh et al., 1996, J. Neuroscience 16, pp1659-1667) (Table 1).
# Male ICR mice [2] = assay: Antiinflammatory activity test: TPA-induced mouse ear edema test; assay type: in vivo; conditions: dose 1 mg/ear topical; ear weight increase 24 h after TPA
# Description: (4) Antiinflammatory Activity Test: TPA (12-O-tetradecanoylphorbol 13-acetate)-induced Mouse Ear Edema Test
# Male ICR mice (body weight 25-30 g), 10 animals/group, were treated topically on the right ear with 30 μl of TPA (2.5 μg) solution in acetone and after 15 min, […] of acetone or test compound solution in acetone was applied topically. After six hours, an identical treatment was applied again. After twenty four hours following the treatment of TPA, the animals were sacrificed and ear tissue was dissected using 6 mm-diameter punch. Ear tissue dissected were weighed to the nearest 0.1 mg on an electrobalance. The increased weight of the tissue compared to control group was considered as an index of inflammation. The percent inhibition is defined by the following equation:
# % inhibition=(C−T)/C×100, wherein C and T represent an increase of ear weight in TPA-treated and ThA+drug-treated group, respectively.
# Male ICR mice [3] = assay: Analgesic activity test: mouse writhing test by inducing with phenyl-p-quinone; assay type: in vivo; conditions: writhes vs control
# Description: (3) Analgesic Activity Test: Mouse Writhing Test by Inducing with Phenyl-p-quinone
# Male ICR mice (mean body weight 25 g) were maintained in a controlled lighting environment (12 h on/12 h off) for experiment. Animals received an intraperitoneal injection of 0.3 ml of the chemical irritant phenyl-p-quinone (dissolved in saline containing 5% ethanol to be a dose of 4.5 mg/kg) and 6 min later, the number of abdominal constrictions was counted in the subsequent 6 min period. Animals (10 animals/group) received 0.2 ml of test compounds solution in vehicle of ethanol/Tween 80/saline (10/10/80) intraperitoneally 30 min before the injection of phenyl-p-quinone. A reduction in the number of writhes responding to the test drug compound relative to the number responding in saline control group was considered to be indicative of an analgesic effect. Analgesic effect was calculated by % inhibition equation (% inhibition=(C−T)/C×100), wherein C and T represent the number of writhes in control and compound-treated group, respectively (Table 2).
# [4] = dose 10 mg/kg intraperitoneally 30 min before phenyl-p-quinone
# T1 sequence (O35433 whole entry): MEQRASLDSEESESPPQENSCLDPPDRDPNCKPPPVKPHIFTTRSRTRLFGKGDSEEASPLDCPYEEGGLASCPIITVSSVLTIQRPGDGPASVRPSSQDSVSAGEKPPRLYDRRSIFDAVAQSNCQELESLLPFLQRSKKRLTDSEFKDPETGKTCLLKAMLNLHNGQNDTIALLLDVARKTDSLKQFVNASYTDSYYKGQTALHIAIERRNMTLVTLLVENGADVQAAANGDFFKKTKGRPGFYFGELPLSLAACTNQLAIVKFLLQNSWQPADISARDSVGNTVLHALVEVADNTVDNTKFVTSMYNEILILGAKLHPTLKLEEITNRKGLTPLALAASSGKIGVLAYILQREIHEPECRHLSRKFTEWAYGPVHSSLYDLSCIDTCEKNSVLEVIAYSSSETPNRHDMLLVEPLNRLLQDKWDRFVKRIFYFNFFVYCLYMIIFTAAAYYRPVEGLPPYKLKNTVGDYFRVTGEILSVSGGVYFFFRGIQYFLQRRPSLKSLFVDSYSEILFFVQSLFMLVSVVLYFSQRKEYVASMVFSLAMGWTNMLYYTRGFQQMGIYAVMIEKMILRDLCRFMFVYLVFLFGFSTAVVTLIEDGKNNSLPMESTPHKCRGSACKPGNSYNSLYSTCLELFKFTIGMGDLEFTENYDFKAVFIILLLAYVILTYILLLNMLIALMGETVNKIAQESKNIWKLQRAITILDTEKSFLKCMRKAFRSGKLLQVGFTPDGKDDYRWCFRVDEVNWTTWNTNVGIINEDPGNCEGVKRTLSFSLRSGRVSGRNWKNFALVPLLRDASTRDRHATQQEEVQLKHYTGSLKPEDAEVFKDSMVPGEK
SMILES,Patch clamp Test (antagonistic activities) [1],Anti-inflammatory effect (% Inhibition) (Male ICR mice [2]) [%],Analgesic effect (% Inhibition) (Male ICR mice [3]; [4]) [%],Analgesic effect (% Inhibition) (Male ICR mice [3]; dose 1 mg/kg intraperitoneally 30 min before phenyl-p-quinone) [%]
CCC(COc1ccc(NS(C)(=O)=O)c(C(F)(F)F)c1)OC(=S)NCCc1ccccc1 (stereo not shown) [Example 83],+,–,–,–
COc1cc(CCC(CCc2ccc(C(F)(F)F)cc2)OC(=S)NCCc2ccccc2)ccc1O (stereo not shown) [Example 54],+,40,64,–
COc1cc(CCC(C)(C)OC(=S)NCCc2ccccc2)ccc1O [Example 56],+,–,–,–
"COc1cc(CCC(CCc2ccccc2)OC(=S)NCCc2ccccc2)ccc1O (stereo not shown) [Example 5, Phenethyl Thiocarbamic Acid O-[3-(4-hydroxy-3-methoxyphenyl)-1-phenethylpropyl] Ester]",+,33,44,–
"COc1cc(OCC2CO2)ccc1O[Si](C)(C)C(C)(C)C (stereo not shown) [Example 60, t-butyl-(2-methoxy-4-oxiranylmethoxy-phenoxy)-dimethyl-silane]",–,45,–,45
